The nature of this series: Log P by HPLC on reversed phase columns (EEC directive 79/831 Annex V.A8). Type of series: physicochemical. As to the method:
Measurement of Log P values was performed according to EEC directive 79/831 Annex V.A8 by HPLC (High Performance Liquid Chromatography) on reversed phase columns with the following methods:
Calibration was done with straight-chain alkan2-ones (with 3 to 16 carbon atoms) with known Log P values (measurement of Log P values using retention times with linear interpolation between successive alkanones). Lambda-max-values were determined using UV-spectra from 200 nm to 400 nm and the peak values of the chromatographic signals.

`CCN(C)/C=N/c1cc(C)c(Oc2ccccc2)cc1Br` [Compound (I-4), N′-(2-bromo-5-methyl-4-phenoxyphenyl)-N-ethyl-N-methylimidoformamide]: the chromatographic logP runs as follows: ([a] LC-UV, acidic range, 0.1% formic acid in water and acetonitrile as eluent) 4.38; ([b] LC-UV, neutral range, 0.001 molar ammonium acetate solution in water and acetonitrile as eluent) 4.33.

By chromatographic logP is commonly meant lipophilicity estimated from chromatographic retention. A high value points to higher lipophilicity.

The record behind these values is patent US20190313638A1, “ACTIVE COMPOUND COMBINATIONS” (priority 2016, published 2019).
